One compound from paper PMC8209957 (Cell, 2021) can be followed below.

For the experiment, the target named is MEK1-C222 (Homo sapiens, UniProt Q02750, S222C/C277S/C376S). As to the kind of experiment: differential scanning fluorimetry. The class given is binding. The note with it: thermal shift with and without Mg2+; values only in figure.

For `Nc1ncnc2c1ncn2[C@@H]1O[C@H](COP(=O)(O)OP(=O)(O)OP(O)(O)=S)[C@@H](O)[C@H]1O` [ATPγS], the differential scanning fluorimetry result is “to form MEK1•ATP(±Mg) and MEK1•ATPγS(±Mg)”.
